Entries after “also recorded” stand apart in the source; their conditions may differ.
What was measured:
[1] = molecular target: T1, subtilisin (Subtilopeptidase A, type VIII) (Bacillus licheniformis, UniProt P00780); assay: Protease mediated cleavage of FamHex-GGL-β-A-2′dU, HPLC and MALDI-TOF analysis; assay type: biochemical; conditions: 2 hours at 37° C., pH 7.5
T1 construct: purchased Sigma Chemical Co. UK
T1 sequence (P00780 106-379): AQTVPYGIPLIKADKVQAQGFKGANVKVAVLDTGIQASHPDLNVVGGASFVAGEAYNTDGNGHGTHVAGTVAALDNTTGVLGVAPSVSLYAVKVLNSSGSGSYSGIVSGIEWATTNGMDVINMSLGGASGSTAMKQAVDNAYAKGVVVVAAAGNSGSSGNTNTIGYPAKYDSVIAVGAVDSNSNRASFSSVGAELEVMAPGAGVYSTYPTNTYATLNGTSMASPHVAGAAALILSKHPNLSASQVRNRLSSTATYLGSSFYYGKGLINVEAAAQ
Protocol: A 10 μg aliquot of the substrate FAMHEX-GGL-β-A 2′dU (compound 6 above) was dissolved in 0.1M sodium acetate buffer pH 7.5 containing 5 mM calcium acetate. The substrate solution was digested at 37° C. for 2 hours in 200 μl in the presence of 0.5 units of subtilisin (Subtilopeptidase A, type VIII, Sigma Chemical Co. UK).
The resulting digest was ultrafiltered using a Microcon YM10 Concentrator (Milipore Ltd., UK) and the filtrate analysed by HPLC (Gilson 170, Gilson, UK) on a Sephasil™ peptide C-18 column (Amersham Biosicences, UK). […] These eluted at 29.8 (I), 32.6 (II), 26.7 (III) and 37.1 (IV) minutes on an acetonitrile gradient of 50% to 70%. The peaks were collected and analysed by MALDI-TOF mass spectrometry (Bruker Biflex II, Brucker, Germany). A matrix of 10 mg/ml 3-hydroxycinnamic acid in acetonitrile and 1% TFA was used for the analysis. The mass spectrometer was calibrated with 100 mM Bradykinin 1-7 (Sigma Chemical Co., UK).

Thermosequenase = assay: Primer extension reactions: incorporation of fluorescently labelled deoxynucleotide triphosphates by DNA polymerase; assay type: biochemical; conditions: number of consecutive fluor-labelled nucleotides added; templates with 2, 3 or 8 consecutive A residues; 48° C. for 45 minutes

Row | Substance | cleavage of the linker by subtilisin [1] | site of hydrolysis by subtilisin ([1]; molecular ion of 717 in peak II) | predominant product with templates 3, 4 and 5 (Thermosequenase)
1 | 5-N-[N-(6-Fluorescein-5(and 6)carboxamidohexanoyl)-Gly-Gly-Leu-β-alanyl]-propargylamino-2′-deoxyuridine [Compound 6] | consistent with the cleavage of the linker by the subtilisin enzyme; also recorded: readily digested by subtilisin | at the peptide bond on the carboxyl side of the leucine residue; also recorded: cleaves at the leucine residue | –
2 | Alexa Fluor 568-5-dUTP [Alexa 568-5-dUTP] | – | – | One addition
3 | Alexa Fluor 594-5-dUTP [Alexa 594-5-dUTP] | – | – | One addition
4 | Cy3 dUTP | – | – | One addition, with minor two additions
5 | Cy5 dUTP | – | – | One addition, with minor two additions
6 | Lissamine-5-dUTP | – | – | One addition, with very slight two additions
7 | Texas Red-5-dUTP | – | – | One addition, with very slight two additions

— US20050164182A1, “Nucleotide analogues” (priority 2001, published 2005)
